System: αSMA protein in human conjunctival fibroblasts
Assay: Western blot of αSMA protein expression
Format: cell-based
Details: 10 or 25 μM, 48 hours
Procedure: Human conjunctival fibroblasts were lysed using 2x SDS sample buffer (100 mM Tris HCL ph6.8, 4% SDS, 20% glycerol, 200 mM dithiothreitol, 0.2% bromophenol blue). Equal amounts of protein were loaded onto and run on 4–12% NuPAGE Bis-Tris protein gels (Novex, Life Technologies). The gels were transferred onto nitrocellulose blotting membranes (Amersham, Life Sciences), and blocked in 3% non-fat milk in PBST (PBS 0.1% Tween) for 1 hour. The membranes were then incubated overnight at 4 °C in αSMA primary antibody (1:200, polyclonal rabbit, ab5694, Abcam). The next day, the membranes were washed three times for 10 minutes in PBST, and incubated for 1 hour at room temperature in anti-rabbit HRP (1:2500, Dako). The membranes were then washed three times for 10 minutes in PBST, treated with ECL solution (Amersham, Life sciences) for 5 minutes, and scanned on an Odyssey IR Imager (LI-COR).

## O=C(Nc1ccc(Cl)cc1)C1CN(C(=O)c2cccc(-c3ccco3)c2)CC(F)(F)C1 (stereo not shown) [CCG-222740]
  αSMA protein expression, comparison: more potent than CCG-203971 at decreasing αSMA protein expression

— paper PMC5428058, “Local delivery of novel MRTF/SRF inhibitors prevents scar tissue formation in a preclinical model of fibrosis” (Scientific Reports, 2017)
